Patent publication US8796330B2, “Inhibitors of histone deacetylase and prodrugs thereof” (Methylgene Inc., priority 2006, dated 2014)
≈ marks a conversion by molar mass, not a printed value. Where two headings read alike, the source gives them in different places.

Columns and labels:
[1] = biological target: rHDAC-1 (Homo sapiens (Human), UniProt Q13547); assay: Fluorogenic Boc-Lys(Ac)-AMC deacetylase assay (Table 4a), rHDAC-1; type: biochemical; conditions: for IC50: Boc-Lys(Ac)-AMC substrate, PI values = IC50 at maximum % inhibition reached; for rHDAC-1 partial inhibition (maximum % inhibition reached): PI = 100% inhibition not reached
Method: (§1) Alternatively (Table 4a), the following protocol is used to assay the compounds of the invention. In the assay, the buffer used is 25 mM HEPES, pH 8.0, 137 mM NaCl, 2.7 mM KCl, 1 mM MgCl2 and the substrate is Boc-Lys(Ac)-AMC in a 50 mM stock solution in DMSO. The enzyme stock solution is 4.08 μg/mL in buffer. The compounds are pre-incubated (2 μl in DMSO diluted to 13 μl in buffer for transfer to assay plate) with enzyme (20 μl of 4.08 μg/ml) for 10 minutes at room temperature (35 μl pre-incubation volume). The mixture is pre-incubated for 5 minutes at room temperature. The reaction is started by bringing the temperature to 37° C. and adding […] substrate. Total reaction volume is 50 μl. […] A plate is incubated in the dark for 10 minutes at room temperature before reading (λEx=360 nm, λEm=470 nm, Cutoff filter at 435 nm).

[2] = biological target: rHDAC-8 (Homo sapiens (Human), UniProt Q9BY41); assay: Fluorogenic Boc-Lys(Ac)-AMC deacetylase assay (Table 4a), rHDAC-8; type: biochemical; conditions: for IC50: Boc-Lys(Ac)-AMC substrate, PI values = IC50 at maximum % inhibition reached; for rHDAC-8 partial inhibition (maximum % inhibition reached): PI = 100% inhibition not reached
Method: as §1

[3] = tested on: histone deacetylase in nuclear extracts from H446 cells (pooled HDACs); assay: Inhibition of histone deacetylase in H446 nuclear extracts ([3H]-acetylated histone substrate); type: biochemical, human; conditions: H446 nuclear extract; for pooled HDACs percent inhibition: @ 1 μM
[4] = biological target: recombinant human HDAC-1 enzyme (rHDAC-1) (Homo sapiens (Human), UniProt Q13547); assay: Inhibition of recombinant human HDAC-1 ([3H]-acetylated histone substrate); type: biochemical; conditions: Table 4, recombinant human HDAC-1
[5] = tested on: acetylated histone H-4 in T24 human bladder cancer cells; assay: Histone H4 acetylation in whole cells by immunoblots; type: cell-based; conditions: T-24, read-out: EC50, concentration effective for increasing the acetylated H-4 signal by 50%, 16 hours incubation, immunoblot densitometry
Method: T24 human bladder cancer cells growing in culture are incubated with HDAC inhibitors for 16 hours. […] of total histone protein are loaded onto SDS/PAGE and transferred to nitrocellulose membranes. Membranes are probed with polyclonal antibodies specific for acetylated histone H-4 (Upstate Biotech Inc.), followed by horse radish peroxidase conjugated secondary antibodies (Sigma). Enhanced Chemiluminescence (ECL) (Amersham) detection is performed using Kodak films (Eastman Kodak). Acetylated H-4 signal is quantified by densitometry.

[6] = Solubility; type: physicochemical
[7] = Milli-Q purified water, read-out: Solubility Water
[8] = pH 2, simulated gastric fluid, read-out: Solubility pH 2

Chain of rHDAC-8 (Q9BY41 whole entry): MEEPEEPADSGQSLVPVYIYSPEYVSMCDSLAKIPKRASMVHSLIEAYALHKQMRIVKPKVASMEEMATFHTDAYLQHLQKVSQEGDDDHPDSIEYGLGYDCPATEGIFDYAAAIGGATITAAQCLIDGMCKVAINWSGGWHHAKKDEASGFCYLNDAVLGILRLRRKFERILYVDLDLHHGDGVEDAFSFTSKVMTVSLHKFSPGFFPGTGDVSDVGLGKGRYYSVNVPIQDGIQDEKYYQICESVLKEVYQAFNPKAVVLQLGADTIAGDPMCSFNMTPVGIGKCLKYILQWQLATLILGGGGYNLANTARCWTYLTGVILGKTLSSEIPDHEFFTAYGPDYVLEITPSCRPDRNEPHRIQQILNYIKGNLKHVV
Chain of recombinant human HDAC-1 enzyme (rHDAC-1) (Q13547 whole entry): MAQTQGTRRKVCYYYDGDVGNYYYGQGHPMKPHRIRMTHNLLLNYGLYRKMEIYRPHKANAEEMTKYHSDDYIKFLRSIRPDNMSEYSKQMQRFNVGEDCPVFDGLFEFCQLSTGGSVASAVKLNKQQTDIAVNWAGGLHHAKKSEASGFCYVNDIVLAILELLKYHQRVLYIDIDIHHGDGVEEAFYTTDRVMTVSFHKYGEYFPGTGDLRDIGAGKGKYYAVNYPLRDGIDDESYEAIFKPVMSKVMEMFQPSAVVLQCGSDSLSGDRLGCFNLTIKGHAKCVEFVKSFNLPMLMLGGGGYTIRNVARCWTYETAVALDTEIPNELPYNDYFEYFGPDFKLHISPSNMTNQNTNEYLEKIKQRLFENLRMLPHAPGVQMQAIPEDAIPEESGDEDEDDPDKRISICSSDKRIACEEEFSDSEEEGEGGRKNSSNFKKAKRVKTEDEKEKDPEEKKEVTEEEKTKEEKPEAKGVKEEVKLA
Chain of rHDAC-1 (Q13547 whole entry): as above

Structure (SMILES) | IC50 [1] | IC50 [2] | IC50 [4] | IC50 [3] | also measured
O=C(Cc1ccc(CCCCc2ccc3c(c2)OCO3)cc1)NO [Compound 187, 2-(4-(4-(benzo[d][1,3]dioxol-5-yl)butyl)phenyl)-N-hydroxyacetamide] | 200 nM | 210 nM |  |  | rHDAC-1 partial inhibition (maximum % inhibition reached) [1]: 62%
O=C(Cc1ccc(CCCCc2cccc(C(F)(F)F)c2)cc1)NO [Compound 184, N-hydroxy-2-(4-(4-(3-(trifluoromethyl)phenyl)butyl)phenyl)acetamide] | 930 nM | 400 nM |  |  | rHDAC-8 partial inhibition (maximum % inhibition reached) [2]: 79%
O=C(Cc1ccc(CCCCc2ccc3[nH]ccc3c2)cc1)NO [Compound 183, 2-(4-(4-(1H-indol-5-yl)butyl)phenyl)-N-hydroxyacetamide] | 380 nM | 410 nM |  |  | 
O=C(Cc1ccc(CCCCc2ccccc2C(F)(F)F)cc1)NO [Compound 185, N-hydroxy-2-(4-(4-(2-(trifluoromethyl)phenyl)butyl)phenyl)acetamide] | 840 nM | 610 nM |  |  | 
Nc1ccccc1NC(=O)/C=C/c1ccc(NS(=O)(=O)c2cccc3ccccc23)cc1 [Compound 107] |  |  | 5000 nM |  | pooled HDACs percent inhibition [3]: 0% @ 1 μM; EC50 [5]: 5000 nM
O=C(/C=C/c1ccc(NS(=O)(=O)c2ccc(-c3ccccc3)cc2)cc1)NO [Compound 120] |  |  | 10 nM | 120 nM | EC50 [5]: 1000 nM
CC(C)(N)C(=O)ONC(=O)Cc1ccc(CCCCc2ccccc2)cc1.Cl [Compound 174f, N-(2-amino-2-methylpropanoyloxy)-2-(4-(4-phenylbutyl)phenyl)acetamide hydrochloride] |  |  |  |  | solubility [6, 7]: 5 µM; solubility [6, 8]: 4 µM
COc1ccc(S(=O)(=O)Nc2ccc(/C=C/C(=O)NO)cc2)cc1OC [Compound 90] |  |  |  | 400 nM | EC50 [5]: 1000 nM
O=C(Cc1ccc(CCCCc2ccc(C(F)(F)F)cc2)cc1)NO [Compound 182, N-hydroxy-2-(4-(4-(4-(trifluoromethyl)phenyl)butyl)phenyl)acetamide] | 700 nM | 1300 nM |  |  | rHDAC-1 partial inhibition (maximum % inhibition reached) [1]: 64%; rHDAC-8 partial inhibition (maximum % inhibition reached) [2]: 74%
Cl.NCC1(C(=O)ONC(=O)Cc2ccc(CCCCc3ccccc3)cc2)CC1 [Compound 174g, N-(1-(aminomethyl)cyclopropanecarbonyloxy)-2-(4-(4-phenylbutyl)phenyl)acetamide hydrochloride] |  |  |  |  | solubility [6, 7]: 195 µM; solubility [6, 8]: 132 µM
COc1ccc(S(=O)(=O)Nc2ccc(/C=C/C(=O)Nc3ccccc3N)cc2)cc1 [Compound 122] |  |  |  |  | EC50 [5]: 2000 nM
O=C(/C=C/c1ccc(NS(=O)(=O)c2ccc(Cl)c(Cl)c2)cc1)NO [Compound 109] |  |  | 120 nM |  | pooled HDACs percent inhibition [3]: 32% @ 1 μM
O=C(Cc1ccc(CCCCc2ccccc2)cc1)NO [H] |  |  |  |  | solubility [6, 7]: 3 µM (≈ 0.85 µg/mL); solubility [6, 8]: 3 µM (≈ 0.85 µg/mL)
O=C(/C=C/c1ccc(NS(=O)(=O)c2ccccc2)cc1)NO [Compound 36, N-Hydroxy-3-[4-(benzenesulfonylamino)-phenyl]-2-propenamide] |  |  |  | 500 nM | EC50 [5]: 5000 nM
O=C(CCCCc1ccc(NS(=O)(=O)c2ccccc2)cc1)NO [Compound 34] |  |  | 300 nM | 2000 nM | 
CC(C)c1cc(C(C)C)c(S(=O)(=O)Nc2ccc(/C=C/C(=O)NO)cc2)c(C(C)C)c1 [Compound 110] |  |  | 550 nM | 700 nM | 
O=C(Cc1ccc(CCCCc2cc(F)c(F)cc2F)cc1)NO [Compound 179, N-hydroxy-2-(4-(4-(2,4,5-trifluorophenyl)butyl)phenyl)acetamide] | 500 nM | 530 nM |  |  | 
O=C(/C=C/c1ccc(NS(=O)(=O)c2ccc3ccccc3c2)cc1)NO [Compound 94] |  |  | 30 nM | 400 nM | 
O=C(/C=C/c1ccc(NS(=O)(=O)c2cc3ccccc3s2)cc1)NO [Compound 95] |  |  | 200 nM | 800 nM | 
